According to US20180318285A1, “METHODS FOR TREATMENT OF AUTISM SPECTRUM DISORDERS” (PRESIDENT AND FELLOWS OF HARVARD COLLEGE, priority 2015, published 2018):
Read-outs that look alike come from different tables or passages of the source.

Legend:
[1] = cited from earlier work
[2] = test system: MeCP2-repressed (MR) long genes in MeCP2 knockdown primary cortical neurons; assay: Nanostring nCounter expression of MeCP2-repressed long genes in MeCP2 shRNA knockdown primary cortical neurons treated with topotecan; type: cell-based, mouse
Procedure: Primary cortical neurons were prepared from E16.5 mouse embryos and cultured as described by Kim et al. For lentiviral-mediated shRNA knockdown, virus was prepared as described in Tiscornia et al.^48 using the MeCP2 shRNA and control shRNA plasmids previously validated in Zhou et al.^49. Virus was concentrated and titrated using the GFP signal expressed from IRES GFP in the virus. After one day in vitro (DIV), cells were infected with lentivirus (knockdown or control) at an MOI of ˜5, such that >90% of cells were infected. […] RNA samples were processed and analyzed using the Nanostring nCounter assay as described above, with the exception that 6 control genes were used for normalization. […]
For non-amplification-based gene expression analysis, Nanostring nCounter reporter CodeSets were designed to detect candidate MeCP2-repressed genes in 250 ng of total RNA extracted from MeCP2 KO and R306C mice. […] Briefly, total RNA was incubated at 65° C. with reporter and capture probes in hybridization buffer overnight, and captured probes were purified and analyzed on the nCounter Digital Analyzer. […] Significant differences between wild-type and MeCP2 KO or MeCP2 R306C samples (p<0.01) were also detected by paired two-tailed t-test comparing the paired mean values for each gene (averaged across samples within each genotype) between genotypes

[3] = test system: MeCP2 knockdown primary cortical neurons; assay: Ribosomal RNA (Bioanalyzer 18S/28S) and total RNA content of MeCP2 knockdown neurons treated with topotecan; type: cell-based, mouse; settings: 50 nM topotecan
[4] = test system: MeCP2 hemizygous male mice; assay: In vivo topotecan treatment by intracerebroventricular osmotic pump: survival and behavior score; design: species or system mouse; settings: 25 μM topotecan in 28-day osmotic pump to right lateral ventricle, 8 week old mice, N=7-8
Procedure: MeCP2 hemizygous male mice at 8 weeks of age (Jackson Labs) were separated into two equal groups based weight. Using standard stereotaxic techniques, cannula (Alzet, Brain Infusion Kit 3) were guided to the right lateral ventricle (from bregma; A/P 1 mm, LV 1 mm) and connected to an osmotic pump (Alzet, 1004, 28-day release) that was implanted subcutaneously. The osmotic pumps had been previously loaded with either vehicle (50 mM tartaric acid) or 25 μM topotecan and primed at 37° C. for approximately 2 days prior to implantation. All mice survived surgery and the following postoperative day. Survival monitoring began on postoperative day 2 and behavioral scoring began on postoperative day 4. MeCP2 behavior was scored as previously reported by Guy et al. Science 2005. Briefly, 6 behavioral domains are monitored to capture the progression of the MeCP2 phenotype: locomotor activity, gait, hindlimb clasp, tremor, breathing, and overall condition. Each behavioral domain is scored as 0 (absence), 1 (mild to moderate), or 2 (severe), and summed to give the total behavioral score. Survival statistics: p=0.09; Mantel-Cox. Behavioral statistics: * p<0.05; 2-way ANOVA, Fisher's LSD. N=7-8.

Structure (SMILES)	doxorubicin concentrations in the brain ([1]; injection of the drug alone or the uncoated nanoparticle)	doxorubicin concentrations in the brain ([1]; nanoparticles overcoated with polysorbate 80, intravenous injection of 5 mg/kg)	concentration of topotecan that most effectively reverses overexpression of long genes ([2]; MeCP2 knockdown cortical neurons)	reversal of long gene misregulation (up-regulation of long genes after MeCP2 knockdown) ([2]; cultured cortical neurons, MeCP2 RNAi knockdown, topotecan from DIV 4 to DIV 10)	effect on decreased ribosomal RNA content of neurons lacking MeCP2 [3]	Behavioral statistics, p (2-way ANOVA, Fisher's LSD), total behavioral score, topotecan versus vehicle [4]	Survival statistics, p (Mantel-Cox), topotecan versus vehicle [4]
COc1cccc2c1C(=O)c1c(O)c3c(c(O)c1C2=O)C[C@@](O)(C(=O)CO)C[C@@H]3O[C@H]1C[C@H](N)[C@H](O)[C@H](C)O1 [doxorubicin]	no detectable increase	up to 6 μg/g	–	–	–	–	–
CC[C@@]1(O)C(=O)OCc2c1cc1n(c2=O)Cc2cc3c(CN(C)C)c(O)ccc3nc2-1 [topotecan, Topotecan]	–	–	50 nM	dose-dependent reversal of long gene misregulation	partially reverses the decreased ribosomal RNA content	< 0.05	0.09
